Test results taken from patent publication US8633204B2 (Pfizer Inc., priority 2006, dated 2014).

Experiments:
[1] = tested on: PI3-K in BT20 cells (phosphorylation of AKT at serine 473); test: PI3-Kα Cellular Assay (AKT Ser473 phosphorylation ELISA in BT20 cells); type: cell-based, human; details: Homo sapiens, BT-20, pAKT Ser473 ELISA, 1 hour incubation
Method in brief: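 Cells seeded overnight in 0.5% FBS, then exposed 1 h at 37 °C to an 11-concentration 1:3 dilution series, in duplicate.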

PI3-Kα = PI3-Kα (Mus musculus (Mouse), UniProt P42337); test: PI3-Kα Biochemical Assay (fluorescence polarization kinase assay)
Chain of PI3-Kα (P42337 whole entry, the tested form may be a part): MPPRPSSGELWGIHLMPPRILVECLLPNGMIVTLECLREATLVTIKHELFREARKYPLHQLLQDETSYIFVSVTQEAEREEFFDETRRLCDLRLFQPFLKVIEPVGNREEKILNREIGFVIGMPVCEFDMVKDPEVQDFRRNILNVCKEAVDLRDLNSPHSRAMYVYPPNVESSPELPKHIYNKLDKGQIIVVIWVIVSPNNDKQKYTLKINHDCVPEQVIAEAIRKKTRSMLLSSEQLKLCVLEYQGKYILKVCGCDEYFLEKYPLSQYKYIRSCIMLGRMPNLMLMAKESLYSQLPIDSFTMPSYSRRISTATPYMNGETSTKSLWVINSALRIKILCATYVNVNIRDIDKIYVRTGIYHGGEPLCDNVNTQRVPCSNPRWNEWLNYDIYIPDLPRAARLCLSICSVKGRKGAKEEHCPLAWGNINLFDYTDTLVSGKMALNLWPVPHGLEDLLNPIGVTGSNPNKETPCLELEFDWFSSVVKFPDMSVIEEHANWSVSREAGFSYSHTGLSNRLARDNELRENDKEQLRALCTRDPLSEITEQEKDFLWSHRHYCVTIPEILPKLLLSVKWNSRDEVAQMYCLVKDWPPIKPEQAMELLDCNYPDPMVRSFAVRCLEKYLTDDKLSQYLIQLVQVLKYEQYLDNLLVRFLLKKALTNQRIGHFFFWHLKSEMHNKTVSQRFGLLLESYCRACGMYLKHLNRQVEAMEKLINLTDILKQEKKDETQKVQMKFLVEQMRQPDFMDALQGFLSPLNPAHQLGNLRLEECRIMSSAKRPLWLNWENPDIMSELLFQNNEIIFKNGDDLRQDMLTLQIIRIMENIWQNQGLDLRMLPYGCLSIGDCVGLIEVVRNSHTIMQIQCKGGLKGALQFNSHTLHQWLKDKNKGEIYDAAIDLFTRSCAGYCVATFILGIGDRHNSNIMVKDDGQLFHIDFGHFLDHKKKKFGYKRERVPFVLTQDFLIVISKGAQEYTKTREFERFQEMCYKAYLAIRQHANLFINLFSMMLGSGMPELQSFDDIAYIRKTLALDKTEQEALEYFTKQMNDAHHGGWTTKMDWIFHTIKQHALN
Chain of PI3-Kα (P26450 whole entry partner, the tested form may be a part): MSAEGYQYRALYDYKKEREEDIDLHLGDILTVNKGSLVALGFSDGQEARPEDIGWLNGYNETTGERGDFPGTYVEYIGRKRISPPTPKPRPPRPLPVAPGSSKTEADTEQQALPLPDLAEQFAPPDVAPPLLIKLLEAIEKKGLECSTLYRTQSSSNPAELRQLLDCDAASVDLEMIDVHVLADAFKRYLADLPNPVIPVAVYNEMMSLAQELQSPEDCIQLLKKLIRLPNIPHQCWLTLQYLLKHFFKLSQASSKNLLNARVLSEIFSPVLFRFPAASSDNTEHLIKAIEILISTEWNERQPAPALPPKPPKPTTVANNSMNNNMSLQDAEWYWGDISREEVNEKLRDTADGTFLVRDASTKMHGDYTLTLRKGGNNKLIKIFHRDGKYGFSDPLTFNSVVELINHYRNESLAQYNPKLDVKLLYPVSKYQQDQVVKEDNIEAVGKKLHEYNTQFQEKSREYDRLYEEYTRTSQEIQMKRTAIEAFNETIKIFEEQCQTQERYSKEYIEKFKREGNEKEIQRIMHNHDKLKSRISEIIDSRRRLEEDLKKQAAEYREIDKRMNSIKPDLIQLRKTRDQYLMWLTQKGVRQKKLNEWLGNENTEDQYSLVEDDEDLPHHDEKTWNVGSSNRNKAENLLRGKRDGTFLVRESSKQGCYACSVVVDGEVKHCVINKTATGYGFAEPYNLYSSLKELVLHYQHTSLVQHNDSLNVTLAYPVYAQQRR
Method in brief: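 Co-expressed mouse p110/p85 PI3-Kα (4 nM stock) acting on PI(4,5)P2 (60 μM stock) with ATP/MgCl2 in HEPES pH 7.4 buffer, 35 min at room temperature, then EDTA stop. PI(3,4,5)P3 product detected by displacement of TAMRA-PIP3 from Grip1 PH domain (FP, 535/580 nm). IC50 from sigmoidal fit of % inhibition.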

IC50 [1] | IC50 (PI3-Kα) | inhibition at 10 µM (PI3-Kα) | SMILES
650 nM | 68 nM | – | CNc1nc(C)c2cc(C(N)=O)c(=O)n(C3CCCC3)c2n1 [Compound 123, 8-Cyclopentyl-4-methyl-2-(methylamino)-7-oxo-7,8-dihydropyrido[2,3-d]pyrimidine-6-carboxamide]
20.6 nM | 1.59 nM | – | CCNc1nc(C)c2cc(-c3cnc(OC)nc3)c(=O)n([C@H]3CC[C@H](O)CC3)c2n1 [Compound 277, 2-(ethylamino)-8-(trans-4-hydroxycyclohexyl)-6-(2-methoxypyrimidin-5-yl)-4-methylpyrido[2,3-d]pyrimidin-7(8H)-one]
6.77 nM | 2.3 nM | – | Cc1nc(N)nc2c1cc(-c1cnc3[nH]ccc3c1)c(=O)n2C(C)C [Compound 210, 2-amino-8-isopropyl-4-methyl-6-(1H-pyrrolo[2,3-d]pyridin-5-yl)pyrido[2,3-d]pyrimidin-7(8H)-one]
3530 nM | 275 nM | – | CNc1nc(C)c2cc(-c3cccnc3OC)c(=O)n(C3CCCC3)c2n1 [Compound 128, 8-cyclopentyl-6-(2-methoxypyridin-3-yl)-4-methyl-2-(methylamino)pyrido[2,3-d]pyrimidin-7(8H)-one]
4530 nM | 340 nM | – | COc1ccc(-c2cc3c(C)nc(N)nc3n(CCN)c2=O)cn1 [Compound 238, 2-Amino-8-(2-amino-ethyl)-6-(6-methoxy-pyridin-3-yl)-4-methyl-8H-pyrido[2,3-d]pyrimidin-7-one]
3.82 nM | 0.75 nM | – | CNc1nc(C)c2cc(-c3cnc4[nH]ccc4c3)c(=O)n(C3CCCC3)c2n1 [Compound 115, 8-cyclopentyl-4-methyl-2-(methylamino)-6-(1H-pyrrolo[2,3-b]pyridin-5-yl)pyrido[2,3-d]pyrimidin-7(8H)-one]

The remaining lines, values behind:

SMILES | IC50 [1] | IC50 (PI3-Kα) | inhibition at 10 µM (PI3-Kα)
COc1ncc(-c2cc3c(C)nc(N)nc3n([C@H]3CC[C@@H](OCCO)CC3)c2=O)cn1 [Compound 293, 2-amino-8-[cis-4-(2-hydroxyethoxy)cyclohexyl]-6-(2-methoxypyrimidin-5-yl)-4-methylpyrido[2,3-d]pyrimidin-7(8H)-one] | 15.3 nM | 5.31 nM | –
CCNc1nc(C)c2cc(CCC(=O)OCC)c(=O)n(C3CCCC3)c2n1 [Compound 132, Ethyl 3-(8-cyclopentyl-2-(ethylamino)-4-methyl-7-oxo-7,8-dihydropyrido[2,3-d]pyrimidin-6-yl)propanoate] | 10000 nM | 5500 nM | –
Cc1nc(N)nc2c1cc(-c1cnc(O)nc1)c(=O)n2C1CCOCC1 [Compound 267, 2-Amino-6-(2-hydroxypyrimidin-5-yl)-4-methyl-8-(tetrahydro-2H-pyran-4-yl)pyrido[2,3-d]pyrimidin-7(8H)-one] | 10000 nM | 810 nM | –
Cc1nc(N)nc2c1cc(Br)c(=O)n2C1CCC(=O)CC1 [Compound 184, 2-amino-6-bromo-4-methyl-8-(4-oxocyclohexyl)pyrido[2,3-d]pyrimidin-7(8H)-one] | 211 nM | 110 nM | –
Cc1nc(N)nc2c1cc(-c1ccc(C#N)nc1)c(=O)n2[C@H]1CC[C@H](O)CC1 [Compound 190, 5-[2-amino-8-(trans-4-hydroxycyclohexyl)-4-methyl-7-oxo-7,8-dihydropyrido[2,3-d]pyrimidin-6-yl]pyridine-2-carbonitrile] | 2690 nM | 470 nM | –
COc1ncc(-c2cc3c(C)nc(N)nc3n([C@H]3C[C@H](OCCO)C3)c2=O)cc1F [Compound 315, 2-amino-6-(5-fluoro-6-methoxypyridin-3-yl)-8-[trans-3-(2-hydroxyethoxy)cyclobutyl]-4-methylpyrido[2,3-d]pyrimidin-7(8H)-one] | 14.6 nM | 3.11 nM | –
Cc1nc(N)nc2c1cc(Br)c(=O)n2CC1CCCO1 (stereo not drawn) [Compound 222, 2-amino-6-bromo-4-methyl-8-((tetrahydrofuran-2-yl)methyl)pyrido[2,3-d]pyrimidin-7(8H)-one] | 2130 nM | 100 nM | –
Cc1nc(N)nc2c1cc(-c1cnc3[nH]ccc3c1)c(=O)n2[C@@H]1CC[C@H](O)C1 [Compound 163, 2-amino-8-[(1R,3S)-3-hydroxycyclopentyl]-4-methyl-6-(1H-pyrrolo[2,3-b]pyridin-5-yl)pyrido[2,3-d]pyrimidin-7(8H)-one] | 20.4 nM | 1.2 nM | –
CNc1nc(C)c2cc(-c3cnn(C)c3)c(=O)n(C3CCCC3)c2n1 [Compound 234, 8-Cyclopentyl-4-methyl-2-methylamino-6-(1-melhyl-1H-pyrazol-4-yl)-8H-pyrido[2,3-d]pyrimidin-7-one] | 314 nM | 39 nM | –
CNc1nc(C)c2cc(-c3cc(CN)ccc3F)c(=O)n(C3CCCC3)c2n1 [Compound 104, 6-(5-(Aminomethyl)-2-fluorophenyl)-8-cyclopentyl-4-methyl-2-(methylamino)pyrido[2,3-d]pyrimidin-7(8H)-one] | 10000 nM | – | 43%
CNc1nc(C)c2cc(-c3ccc(O)c(OC)c3)c(=O)n(C3CCCC3)c2n1 [Compound 108, 8-cyclopentyl-6-(4-hydroxy-3-methoxyphenyl)-4-methyl-2-(methylamino)pyrido[2,3-d]pyrimidin-7(8H)-one] | 3.82 nM | 1.57 nM | 99%
COc1ccc(-c2cc3c(C)nc(NCC(C)(C)O)nc3n(C3CCCC3)c2=O)cn1 [Compound 116, 8-Cyclopentyl-2-(2-hydroxy-2-methylpropylamino)-6-(6-methoxypyridin-34)-4-methylpyrido[2,3-d]pyrimidin-7(8H)-one] | 5750 nM | 830 nM | –
Cc1nc(N)nc2c1cc(-c1ccccc1)c(=O)n2Cc1ccc(Cl)cc1 [Compound 150, 8-(4-Chlorobenzyl)-2-amino-4-methyl-6-phenylpyrido[2,3-d]pyrimidin-7(8H)-one] | > 10000 nM | 1400 nM | –
